Assay results: PubChem BioAssay AID248 (DTP/NCI, 2004)
Several values for one entry are separate records, joined by “and”; a condition that tells them apart may be missing. Equal values may be shown once. Inconclusive results and toxic doses are left out. No stated cut-off is given here; in the data, active means T/C of 150% or more; inactive means T/C below 125%.

Tested on: L1210 leukemia ip in BDF1 mice, survival T/C
Experiment: NCI In Vivo Anticancer Drug Screen. Data for tumor model L1210 Leukemia (intraperitoneal) in B6D2F1 (BDF1) mice
Conditions: endpoint: mean survival time, higher = longer survival
Summary of the method: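 Value reflects the ratio of survival in compound-treated mice to survival in vehicle-treated controls, with both groups carrying the same transplanted tumor.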

[1] = dose: 100.0 mg/kg/injection, schedule: Q01DX009 (ip), vehicle: saline
[2] = dose: 200.0 mg/kg/injection, schedule: Q01DX009 (ip), vehicle: saline
[3] = dose: 100.0 mg/kg/injection, schedule: Q01DX001 (ip), vehicle: saline
[4] = dose: 200.0 mg/kg/injection, schedule: Q01DX001 (ip), vehicle: saline
[5] = dose: 400.0 mg/kg/injection, schedule: Q01DX001 (ip), vehicle: saline
[6] = dose: 100.0 mg/kg/injection, schedule: Q01DX009 (ip), vehicle: saline with Tween-80
[7] = dose: 200.0 mg/kg/injection, schedule: Q01DX009 (ip), vehicle: saline with Tween-80
[8] = dose: 400.0 mg/kg/injection, schedule: Q01DX009 (ip), vehicle: saline with Tween-80
[9] = dose: 100.0 mg/kg/injection, schedule: Q04DX003 (ip), vehicle: Klucel (hydroxypropylcellulose) (HPC)
[10] = dose: 200.0 mg/kg/injection, schedule: Q04DX003 (ip), vehicle: Klucel (hydroxypropylcellulose) (HPC)
[11] = dose: 400.0 mg/kg/injection, schedule: Q04DX003 (ip), vehicle: Klucel (hydroxypropylcellulose) (HPC)
[12] = dose: 100.0 mg/kg/injection, schedule: Q01DX009 (ip), vehicle: Klucel (hydroxypropylcellulose) (HPC)
[13] = dose: 200.0 mg/kg/injection, schedule: Q01DX009 (ip), vehicle: Klucel (hydroxypropylcellulose) (HPC)
[14] = dose: 100.0 mg/kg/injection, schedule: Q04DX003 (ip), vehicle: saline with Tween-80
[15] = dose: 200.0 mg/kg/injection, schedule: Q04DX003 (ip), vehicle: saline with Tween-80
[16] = dose: 400.0 mg/kg/injection, schedule: Q04DX003 (ip), vehicle: saline with Tween-80

Measured: T/C

NC(CS/C(Cl)=C/Cl)C(=O)O (stereo not drawn)
inactive: dose: 1.5 mg/kg/injection, schedule: Q01DX009 (ip), vehicle: saline 101 % of control | dose: 3.0 mg/kg/injection, schedule: Q01DX009 (ip), vehicle: saline 106 % of control | dose: 6.0 mg/kg/injection, schedule: Q01DX009 (ip), vehicle: saline 104 % of control | dose: 12.0 mg/kg/injection, schedule: Q01DX009 (ip), vehicle: saline 98 % of control | dose: 17.0 mg/kg/injection, schedule: Q01DX009 (ip), vehicle: saline 101 % of control | dose: 27.0 mg/kg/injection, schedule: Q01DX009 (ip), vehicle: saline 95 % of control

CN(C)NC(=O)CC(N)C(=O)O (stereo not drawn)
inactive: [1] 97 % of control | [2] 114 % of control | dose: 400.0 mg/kg/injection, schedule: Q01DX009 (ip), vehicle: saline 100 % of control

C/C(C/C(C)=N/O)=N/O.C/C(C/C(C)=N/O)=N\O.[Cl][Rh][Cl]
inactive: dose: 25.0 mg/kg/injection, schedule: Q01DX009 (ip), vehicle: water 100 % of control | dose: 50.0 mg/kg/injection, schedule: Q01DX009 (ip), vehicle: water 97 % of control | dose: 100.0 mg/kg/injection, schedule: Q01DX009 (ip), vehicle: water 97 % of control | dose: 200.0 mg/kg/injection, schedule: Q01DX009 (ip), vehicle: water 100 % of control | dose: 400.0 mg/kg/injection, schedule: Q01DX009 (ip), vehicle: water 94 % of control

Cc1cccc(/C=C2/SC(=S)N(c3ccccc3)C2=O)c1
inactive: [3] 100 % of control | [4] 98 % of control | [5] 105 % of control

CCCCCCCCP(=O)(N1CC1CC)N1CC1CC (stereo not drawn)
inactive: dose: 50.0 mg/kg/injection, schedule: Q01DX001 (ip), vehicle: saline 101 % of control | [3] 103 % of control | [4] 101 % of control

O=C(c1ccccc1)C(O)(CCP(=O)(c1ccccc1)c1ccccc1)c1ccccc1 (stereo not drawn)
inactive: dose: 75.0 mg/kg/injection, schedule: Q01DX001 (ip), vehicle: carboxymethylcellulose (CMC) 88 % of control | dose: 150.0 mg/kg/injection, schedule: Q01DX001 (ip), vehicle: carboxymethylcellulose (CMC) 96 % of control

Cc1ccnc(NS(=O)(=O)c2ccc(N=Nc3c(N)n(C)c(=O)n(C)c3=O)cc2)n1
inactive: dose: 100.0 mg/kg/injection, schedule: Q01DX001 (ip), vehicle: carboxymethylcellulose (CMC) 98 % of control | dose: 200.0 mg/kg/injection, schedule: Q01DX001 (ip), vehicle: carboxymethylcellulose (CMC) 93 % of control | dose: 400.0 mg/kg/injection, schedule: Q01DX001 (ip), vehicle: carboxymethylcellulose (CMC) 95 % of control

Cc1ccc(CNc2ccc(I)cc2)cc1
inactive: [6] 96 % of control | [7] 96 % of control | [8] 98 % of control

O=C1OC(c2ccccc2)=N/C1=C\c1cccnc1
inactive: dose: 50.0 mg/kg/injection, schedule: Q04DX002 (ip), vehicle: Klucel (hydroxypropylcellulose) (HPC) 90 % of control | dose: 100.0 mg/kg/injection, schedule: Q04DX002 (ip), vehicle: Klucel (hydroxypropylcellulose) (HPC) 96 % of control | dose: 200.0 mg/kg/injection, schedule: Q04DX002 (ip), vehicle: Klucel (hydroxypropylcellulose) (HPC) 86 % of control | dose: 400.0 mg/kg/injection, schedule: Q04DX002 (ip), vehicle: Klucel (hydroxypropylcellulose) (HPC) 86 % of control

Cc1cc2ccccc2nc1-c1ccccc1F
inactive: [3] 97 % of control | [4] 94 % of control | [5] 88 % of control

CCOC(=O)CCC(NC(=O)c1ccc2c(c1)CCCN2C=O)C(=O)OCC (stereo not drawn)
inactive: [9] 104 % of control | [10] 103 % of control | [11] 103 % of control

CCOC(=O)Nc1cc(Cl)ccc1OC
inactive: [12] 107 % of control | [13] 91 % of control | dose: 400.0 mg/kg/injection, schedule: Q01DX009 (ip), vehicle: Klucel (hydroxypropylcellulose) (HPC) 93 % of control

CC1(C)SC2C(NC(=O)COc3ccccc3)C(=O)N2C1C(=O)O (stereo not drawn) (tested in a mixture with another compound)
inactive: [14] 101 % of control | [15] 103 % of control | [16] 97 % of control

Cc1c(-c2ccccc2)nn(O)c1-c1ccccc1
inactive: dose: 50.0 mg/kg/injection, schedule: Q01DX009 (ip), vehicle: Klucel (hydroxypropylcellulose) (HPC) 102 % of control | [12] 102 % of control | [13] 94 % of control

C1CCC2[N-]CC3CCCCC3[N-]CC3CCCCC3[N-]CC3CCCCC3[N-]CC2C1.[Ni+2].[O-][Cl+3]([O-])([O-])O (stereo not drawn)
inactive: dose: 12.5 mg/kg/injection, schedule: Q04DX002 (ip), vehicle: saline with Tween-80 101 % of control | dose: 25.0 mg/kg/injection, schedule: Q04DX002 (ip), vehicle: saline with Tween-80 108 % of control | dose: 50.0 mg/kg/injection, schedule: Q04DX002 (ip), vehicle: saline with Tween-80 111 % of control

CC1CCCCN1P(N1CCCCC1C)N1CCCCC1C (stereo not drawn)
inactive: dose: 100.0 mg/kg/injection, schedule: Q04DX002 (ip), vehicle: saline with Tween-80 98 % of control | dose: 200.0 mg/kg/injection, schedule: Q04DX002 (ip), vehicle: saline with Tween-80 98 % of control

Brc1cc(Br)c(I)c(Br)c1
inactive: [6] 102 % of control | [14] 96 % of control | [7] 101 % of control | [15] 108 % of control | [8] 101 % of control | [16] 103 % of control

CCOC(=S)SCc1ccc([N+](=O)[O-])cc1
inactive: dose: 100.0 mg/kg/injection, schedule: Q04DX002 (ip), vehicle: gum acacia 97 % of control | dose: 200.0 mg/kg/injection, schedule: Q04DX002 (ip), vehicle: gum acacia 100 % of control | dose: 400.0 mg/kg/injection, schedule: Q04DX002 (ip), vehicle: gum acacia 97 % of control

O=C1CSC(=NCCN=C2NC(=O)CS2)N1
inactive: [3] 104 % of control | [4] 111 % of control | [5] 102 % of control

CC12CCC(O)C(C)(C)C1CCC1=C2CCC2(C)C(c3ccoc3)CCC12C (stereo not drawn)
inactive: dose: 50.0 mg/kg/injection, schedule: Q01DX001 (sc), vehicle: steriod suspending solution 111 % of control | dose: 100.0 mg/kg/injection, schedule: Q01DX001 (sc), vehicle: steriod suspending solution 115 % of control | dose: 200.0 mg/kg/injection, schedule: Q01DX001 (sc), vehicle: steriod suspending solution 105 % of control | dose: 400.0 mg/kg/injection, schedule: Q01DX001 (sc), vehicle: steriod suspending solution 109 % of control

COc1ccc(OC)c(NC(=O)Oc2ccc(Cl)cc2C)c1
inactive: [9] 97 % of control | [10] 98 % of control | [11] 97 % of control

Cc1ccc(S(=O)(=O)OC2C(O)OCC3OC(C)(C)OC32)cc1 (stereo not drawn)
inactive: [6] 95 % of control | [7] 88 % of control | [8] 88 % of control

Cc1ccccc1OCC(=O)O
inactive: dose: 50.0 mg/kg/injection, schedule: Q01DX009 (ip), vehicle: saline with Tween-80 107 % of control | dose: 50.0 mg/kg/injection, schedule: Q01DX009 (ip), vehicle: saline 107 % of control | [6] 98 % of control | [1] 98 % of control | dose: 100.0 mg/kg/injection, schedule: Q04DX003 (ip), vehicle: gum acacia 98 % of control | [7] 98 % of control | [2] 98 % of control | dose: 200.0 mg/kg/injection, schedule: Q04DX003 (ip), vehicle: gum acacia 94 % of control | dose: 400.0 mg/kg/injection, schedule: Q04DX003 (ip), vehicle: gum acacia 93 % of control

S=C(Nc1ccccc1)NC1CCC(CC2CCCCC2)CC1 (stereo not drawn)
inactive: dose: 75.0 mg/kg/injection, schedule: Q01DX009 (ip), vehicle: Klucel (hydroxypropylcellulose) (HPC) 105 % of control | [9] 108 % of control | dose: 150.0 mg/kg/injection, schedule: Q01DX009 (ip), vehicle: Klucel (hydroxypropylcellulose) (HPC) 107 % of control | [10] 108 % of control

COC1OC2COC(c3ccccc3)OC2C(O)C1OS(=O)(=O)c1ccc(C)cc1 (stereo not drawn)
inactive: [14] 87 % of control | [15] 87 % of control

CCCn1c2c(c(=O)n(CC)c1=O)S(=O)C(OCC)C(=O)N2 (stereo not drawn)
inactive: dose: 78.0 mg/kg/injection, schedule: Q01DX Z (ip), vehicle: other 92 % of control | dose: 116.0 mg/kg/injection, schedule: Q01DX Z (ip), vehicle: other 97 % of control and 104 % of control | dose: 175.0 mg/kg/injection, schedule: Q01DX Z (ip), vehicle: other 98 % of control and 87 % of control | dose: 262.5 mg/kg/injection, schedule: Q01DX Z (ip), vehicle: other 93 % of control and 103 % of control
